Experiment [1] concerns the target T1, SMYD3 (Homo sapiens (Human), UniProt Q9H7B4). As to the kind of experiment: SMYD3 biochemical assay (SPA, 3H-SAM methylation of MEKK2 protein substrate). As to conditions: average of n = 1 to n = 50; read-out: SMYD3 Biochem IC50. A digest of the protocol:
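Full-length native human SMYD3 (E. coli-expressed, tags removed) preincubated with compounds 30 min at room temperature, then reaction started with 3H-SAM and GST-tagged MEKK2 protein in 25 mM Tris-Cl pH 8.0, 1 mM TCEP, 0.005% BSG, 0.005% Tween 20. Quenched with unlabelled SAM (100 uM final); 3H-MEKK2 counted by SPA.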

The target of experiment [2] is T1, SMYD3. As to the kind of experiment: SMYD3 cell assay (Trimethyl-MEKK2 In-Cell Western in 293T/17 cells). As to conditions: average of n = 1 to n = 50; read-out: SMYD3 Cell IC50. The experiment is classed as cell-based. The essentials: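 In-Cell Western ratio of trimethyl-Lys260 MEKK2 to anti-flag signal; percent inhibition from DMSO and maximum-inhibition controls, IC50 by non-linear regression, triplicates.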

By IC50 is commonly meant the concentration that gives 50% inhibition.

T1 sequence (Q9H7B4 whole entry): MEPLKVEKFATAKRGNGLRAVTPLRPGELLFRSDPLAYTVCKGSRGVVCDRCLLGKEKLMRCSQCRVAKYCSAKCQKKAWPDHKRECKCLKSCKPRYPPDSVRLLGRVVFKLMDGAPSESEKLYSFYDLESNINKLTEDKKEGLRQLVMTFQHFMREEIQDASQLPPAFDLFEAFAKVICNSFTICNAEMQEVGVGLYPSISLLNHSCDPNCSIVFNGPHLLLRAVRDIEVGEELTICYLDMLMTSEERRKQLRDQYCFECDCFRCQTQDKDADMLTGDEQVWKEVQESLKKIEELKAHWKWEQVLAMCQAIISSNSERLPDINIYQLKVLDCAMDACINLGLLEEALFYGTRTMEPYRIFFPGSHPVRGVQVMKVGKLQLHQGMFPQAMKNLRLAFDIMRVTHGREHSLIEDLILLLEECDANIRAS

Consider `COCCN1CCC(CS(=O)(=O)N2CC[C@@H](NC(=O)c3cc(C4CC4)on3)[C@@H](C)C2)CC1` [compound 654, 5-cyclopropyl-N-((3S,4R)-1-(((1-(2-methoxyethyl)piperidin-4-yl)methyl)sulfonyl)-3-methylpiperidin-4-yl)isoxazole-3-carboxamide], for which the IC50 was 56 nM in experiment [1] and 340 nM in experiment [2].

Regarding `C[C@H]1CN(S(=O)(=O)CC2CCN(Cc3ccccc3)CC2)CC[C@H]1NC(=O)c1cc(C2CC2)on1` [compound 655, N-((3S,4R)-1-(((1-benzylpiperidin-4-yl)methyl)sulfonyl)-3-methylpiperidin-4-yl)-5-cyclopropylisoxazole-3-carboxamide], the IC50 was determined as 56.4 nM in experiment [1] and 497 nM in experiment [2].

With `CN1CCN(S(=O)(=O)N2[C@@H]3CC[C@H]2C[C@@H](NC(=O)c2cc(C4CC4)on2)C3)CC1(C)C` [compound 656, 5-cyclopropyl-N-((1R,3r,5S)-8-((3,3,4-trimethylpiperazin-1-yl)sulfonyl)-8-azabicyclo[3.2.1]octan-3-yl)isoxazole-3-carboxamide], the results for the IC50 in experiment [1] and in experiment [2] were 59.8 nM and 441 nM, respectively.

Take `C[C@@H]1CN(C(=O)c2ccc(C(C)(C)N)cc2)[C@H](C)C[C@@H]1NC(=O)c1cc(C2CC2)on1` [compound 657, N-((2R,4S,5R)-1-(4-(2-aminopropan-2-yl)benzoyl)-2,5-dimethylpiperidin-4-yl)-5-cyclopropylisoxazole-3-carboxamide]: the IC50 came to 63.4 nM in experiment [1] and 634 nM in experiment [2].

Regarding `C[C@@H]1C[C@H](NC(=O)c2cc(C3CC3)on2)CCN1C(=O)c1ccc(CN2CCNCC2)cc1` [compound 658, 5-cyclopropyl-N-((2R,4R)-2-methyl-1-(4-(piperazin-1-ylmethyl)benzoyl)piperidin-4-yl)isoxazole-3-carboxamide], the values for the concentration for half-maximal inhibition (IC50) in experiment [1] and in experiment [2] were 64.7 nM and 1400 nM, respectively.

With `CN(C1CCN(Cc2ccccc2)CC1)S(=O)(=O)N1[C@@H]2CC[C@H]1C[C@@H](NC(=O)c1cc(C3CC3)on1)C2` [compound 659, N-((1R,3r,5S)-8-(N-(1-benzylpiperidin-4-yl)-N-methylsulfamoyl)-8-azabicyclo[3.2.1]octan-3-yl)-5-cyclopropylisoxazole-3-carboxamide], the concentration for half-maximal inhibition (IC50) in experiment [1] was found to be 66.4 nM; in experiment [2], 578 nM.

On to `CC1CN(S(=O)(=O)N2[C@@H]3CC[C@H]2C[C@@H](NC(=O)c2cc(C4CC4)on2)C3)CCN1C` (stereo partly drawn) [compound 660, 5-cyclopropyl-N-((1R,3r,5S)-8-((3,4-dimethylpiperazin-1-yl)sulfonyl)-8-azabicyclo[3.2.1]octan-3-yl)isoxazole-3-carboxamide], for which the half-maximal inhibitory concentration (IC50) in experiment [1] came out at 66.7 nM; in experiment [2], 414 nM.

With `C[C@@H]1CN(S(=O)(=O)N2CC[C@H](NC(=O)c3cc(C4CC4)on3)C[C@@H]2C)[C@@H](C)CN1` [compound 661, 5-cyclopropyl-N-((2S,4S)-1-(((2S,5R)-2,5-dimethylpiperazin-1-yl)sulfonyl)-2-methylpiperidin-4-yl)isoxazole-3-carboxamide], the IC50 in experiment [1] amounted to 77.3 nM; in experiment [2], 490 nM.

Regarding `O=C(N[C@H]1CCN(S(=O)(=O)CC2CCN(CCO)CC2)[C@@H](Cc2ccccc2)C1)c1cc(C2CC2)on1` [compound 662, N-((2S,4S)-2-benzyl-1-(((1-(2-hydroxyethyl)piperidin-4-yl)methyl)sulfonyl)piperidin-4-yl)-5-cyclopropylisoxazole-3-carboxamide], the 50% inhibitory concentration (IC50) in experiment [1] is 80.1 nM; in experiment [2], 1550 nM.

On to `O=C(N[C@H]1C[C@H]2CC[C@@H](C1)N2S(=O)(=O)CCN1CCC(N2CCCCC2)C1)c1cc(C2CC2)on1` (stereo partly drawn) [compound 663, 5-cyclopropyl-N-((1R,3r,5S)-8-((2-(3-(piperidin-1-yl)pyrrolidin-1-yl)ethyl)sulfonyl)-8-azabicyclo[3.2.1]octan-3-yl)isoxazole-3-carboxamide], for which the IC50 in experiment [1] stood at 85.1 nM; in experiment [2], 670 nM.

As to `C[C@@H]1C[C@H](NC(=O)c2cc(C3CC3)on2)CCN1C(=O)c1ccc([C@@H](C)N)cc1` [compound 664, N-((2R,4R)-1-(4-((R)-1-aminoethyl)benzoyl)-2-methylpiperidin-4-yl)-5-cyclopropylisoxazole-3-carboxamide], the half-inhibitory concentration (IC50) was determined as 86.6 nM in experiment [1] and 1070 nM in experiment [2].

Consider `C[C@@H]1CNCCN1S(=O)(=O)N1CC[C@H](NC(=O)c2cc(C3CC3)on2)C[C@@H]1C` [compound 666, 5-cyclopropyl-N-((2S,4S)-2-methyl-1-(((R)-2-methylpiperazin-1-yl)sulfonyl)piperidin-4-yl)isoxazole-3-carboxamide], for which the IC50 stood at 90.6 nM in experiment [1] and 801 nM in experiment [2].

Turning to `C[C@H]1CN(S(=O)(=O)NC2CCN(C)CC2)CC[C@H]1NC(=O)c1cc(C2CC2)on1` [compound 667, 5-cyclopropyl-N-((3S,4R)-3-methyl-1-(N-(1-methylpiperidin-4-yl)sulfamoyl)piperidin-4-yl)isoxazole-3-carboxamide], the IC50 came out at 96.9 nM in experiment [1] and 731 nM in experiment [2].

With `C[C@H]1CN(S(=O)(=O)N(C)C2CCN(C)CC2)CC[C@H]1NC(=O)c1cc(C2CC2)on1` [compound 668, 5-cyclopropyl-N-((3S,4R)-3-methyl-1-(N-methyl-N-(1-methylpiperidin-4-yl)sulfamoyl)piperidin-4-yl)isoxazole-3-carboxamide], the IC50 in experiment [1] came out at 101 nM; in experiment [2], 576 nM.

As to `C[C@@H]1CN(S(=O)(=O)N2CC[C@H](NC(=O)c3cc(C4CC4)on3)C[C@@H]2C)CCN1C` [compound 669, 5-cyclopropyl-N-((2S,4S)-1-(((R)-3,4-dimethylpiperazin-1-yl)sulfonyl)-2-methylpiperidin-4-yl)isoxazole-3-carboxamide], the concentration for half-maximal inhibition (IC50) turned out to be 102 nM in experiment [1] and 398 nM in experiment [2].

Turning to `O=C(N[C@H]1C[C@H]2CC[C@@H](C1)N2S(=O)(=O)CCCNCCN1CCOCC1)c1cc(C2CC2)on1` [compound 670, 5-cyclopropyl-N-((1R,3r,5S)-8-((3-((2-morpholinoethyl)amino)propyl)sulfonyl)-8-azabicyclo[3.2.1]octan-3-yl)isoxazole-3-carboxamide], the values for the IC50 in experiment [1] and in experiment [2] were 103 nM and 886 nM, respectively.

As for `C[C@@H]1C[C@H](NC(=O)c2cc(C3CC3)on2)CCN1C(=O)c1ccc(OCCN)cc1` [compound 671, N-((2R,4R)-1-(4-(2-aminoethoxy)benzoyl)-2-methylpiperidin-4-yl)-5-cyclopropylisoxazole-3-carboxamide], the results for the half-inhibitory concentration (IC50) in experiment [1] and in experiment [2] were 104 nM and 5580 nM, respectively.

For the compound `CN(C)CCS(=O)(=O)N1[C@@H]2CC[C@H]1C[C@@H](NC(=O)c1cc(C3CC3)on1)C2` [compound 672, 5-cyclopropyl-N-((1R,3r,5S)-8-((2-(dimethylamino)ethyl)sulfonyl)-8-azabicyclo[3.2.1]octan-3-yl)isoxazole-3-carboxamide], the 50% inhibitory concentration (IC50) turned out to be 104 nM in experiment [1] and 388 nM in experiment [2].

With `O=C(N[C@H]1C[C@H]2CCC[C@@H](C1)N2S(=O)(=O)CC1CCNCC1)c1cc(C2CC2)on1` [compound 673, 5-cyclopropyl-N-((1R,3r,5S)-9-((piperidin-4-ylmethyl)sulfonyl)-9-azabicyclo[3.3.1]nonan-3-yl)isoxazole-3-carboxamide], the figures for the IC50 in experiment [1] and in experiment [2] were 106 nM and 1680 nM, respectively.

Regarding `C[C@H]1C[C@@H](NC(=O)c2cc(C3CC3)on2)CCN1S(=O)(=O)N(C)C1CCN(C)CC1` [compound 674, 5-cyclopropyl-N-((2S,4S)-2-methyl-1-(N-methyl-N-(1-methylpiperidin-4-yl)sulfamoyl)piperidin-4-yl)isoxazole-3-carboxamide], the values for the IC50 in experiment [1] and in experiment [2] were 108 nM and 1080 nM, respectively.

Consider `CNCc1ccc(C(=O)N2CC[C@@H](NC(=O)c3cc(C4CC4)on3)C[C@H]2C)cc1` [compound 675, 5-cyclopropyl-N-((2R,4R)-2-methyl-1-(4-((methylamino)methyl)benzoyl)piperidin-4-yl)isoxazole-3-carboxamide], for which the half-maximal inhibitory concentration (IC50) is 110 nM in experiment [1] and 1370 nM in experiment [2].

Consider `C[C@@H]1C[C@H](NC(=O)c2cc(C3CC3)on2)CCN1S(=O)(=O)CC1CCN(CCN2CCOCC2)CC1` [compound 676, 5-cyclopropyl-N-((2R,4R)-2-methyl-1-(((1-(2-morpholinoethyl)piperidin-4-yl)methyl)sulfonyl)piperidin-4-yl)isoxazole-3-carboxamide], for which the IC50 in experiment [1] was 111 nM; in experiment [2] it was above 10000 nM.

With `C[C@H]1C[C@@H](NC(=O)c2cc(C3CC3)on2)CCN1S(=O)(=O)N(C)CCN` [compound 677, N-((2S,4S)-1-(N-(2-aminoethyl)-N-methylsulfamoyl)-2-methylpiperidin-4-yl)-5-cyclopropylisoxazole-3-carboxamide], the half-maximal inhibitory concentration (IC50) worked out at 111 nM in experiment [1] and 5310 nM in experiment [2].

Consider `CN(C1CCNCC1)S(=O)(=O)N1[C@@H]2CCC[C@H]1C[C@@H](NC(=O)c1cc(C3CC3)on1)C2` [compound 678], for which the IC50 in experiment [1] turned out to be 113 nM; in experiment [2] it was 2660 nM.

With `C[C@H](N)c1ccc(C(=O)N2CC[C@@H](NC(=O)c3cc(C4CC4)on3)C[C@H]2C)cc1` [compound 679, N-((2R,4R)-1-(4-((S)-1-aminoethyl)benzoyl)-2-methylpiperidin-4-yl)-5-cyclopropylisoxazole-3-carboxamide], the figures for the IC50 in experiment [1] and in experiment [2] were 113 nM and 1300 nM, respectively.

With `C[C@H]1C[C@@H](NC(=O)c2cc(C3CC3)on2)CCN1S(=O)(=O)N1CCN(C)C(C)(C)C1` [compound 680, 5-cyclopropyl-N-((2S,4S)-2-methyl-1-((3,3,4-trimethylpiperazin-1-yl)sulfonyl)piperidin-4-yl)isoxazole-3-carboxamide], the IC50 is 119 nM in experiment [1] and 592 nM in experiment [2].

For the origin of these results see US10577363B2, “Substituted piperidine compounds” (EPIZYME, INC., priority 2014, dated 2020).
